Legend:
Assay in all cases: relative viability (nuclei count vs DMSO), 5 days (fraction); higher = more cells survive
[1] = system: A-427
In short: (§1)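 Lung cancer cell lines in 1536-well plates were dosed by pin tool the day after seeding, either with one drug alone or with a fixed anchor-drug dose plus five library-drug doses (not always all listed) in √10 steps. After 5 days, cells were fixed and their nuclei stained in one step (final 0.05% Triton X-100, 1% formaldehyde, 1 ug/ml Hoechst), then counted on 4× images. Relative viability is the nuclei count in treated wells divided by that in vehicle wells. Values are medians of duplicate plates.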

[2] = system: HCC-78
In short: as §1

[3] = system: NCI-H460
In short: as §1

[4] = system: NCI-H1666
In short: as §1

[5] = system: SK-LU-1
In short: as §1

[6] = system: LC-2-ad
In short: as §1

[7] = system: NCI-H2009
In short: as §1

[8] = system: COR-L 105
In short: as §1

[9] = system: NCI-H2085
In short: as §1

[10] = system: UMC-11
In short: as §1

[11] = system: NCI-H358
In short: as §1

[12] = system: EPLC-272H
In short: as §1

[13] = system: LU99A
In short: as §1

[14] = system: HCC-366
In short: as §1

[15] = system: NCI-H2170
In short: as §1

[16] = system: NCI-H1792
In short: as §1

[17] = system: LXF-289
In short: as §1

[18] = system: NCI-H1915
In short: as §1

[19] = system: HOP-62
In short: as §1

[20] = system: NCI-H1944
In short: as §1

SMILES: COc1nc(C)cnc1NS(=O)(=O)c1cccnc1-c1ccc(-c2nnco2)cc1 [Zibotentan] + C[C@@H](Oc1cc(-c2cnn(C3CCNCC3)c2)cnc1N)c1c(Cl)ccc(F)c1Cl [Crizotinib] (partner 1 µM)
- relative viability ([1]; first compound 0.08 µM): 0.858
- relative viability ([1]; first compound 0.253 µM): 0.91
- relative viability ([1]; first compound 0.8 µM): 0.904
- relative viability ([1]; first compound 2.53 µM): 0.84
- relative viability ([2]; first compound 0.08 µM): 0.336
- relative viability ([2]; first compound 0.253 µM): 0.311
- relative viability ([2]; first compound 0.8 µM): 0.324
- relative viability ([2]; first compound 2.53 µM): 0.343
- relative viability ([3]; first compound 0.08 µM): 1.2
- relative viability ([3]; first compound 0.8 µM): 1.01
- relative viability ([3]; first compound 2.53 µM): 0.903
- relative viability ([4]; first compound 0.08 µM): 1.01
- relative viability ([4]; first compound 0.253 µM): 0.856
- relative viability ([4]; first compound 0.8 µM): 1.15
- relative viability ([4]; first compound 2.53 µM): 0.996
- relative viability ([5]; first compound 0.08 µM): 0.879
- relative viability ([5]; first compound 0.253 µM): 0.841
- relative viability ([5]; first compound 0.8 µM): 0.928
- relative viability ([5]; first compound 2.53 µM): 1.05
- relative viability ([6]; first compound 0.08 µM): 0.511
- relative viability ([6]; first compound 0.253 µM): 0.448
- relative viability ([6]; first compound 0.8 µM): 0.493
- relative viability ([6]; first compound 2.53 µM): 0.469
- relative viability ([7]; first compound 0.08 µM): 1.05
- relative viability ([7]; first compound 0.253 µM): 0.947
- relative viability ([7]; first compound 0.8 µM): 0.995
- relative viability ([7]; first compound 2.53 µM): 1.06
- relative viability ([8]; first compound 0.08 µM): 0.826
- relative viability ([8]; first compound 0.253 µM): 0.665
- relative viability ([8]; first compound 0.8 µM): 0.901
- relative viability ([8]; first compound 2.53 µM): 1.07
- relative viability ([9]; first compound 0.08 µM): 1.03
- relative viability ([9]; first compound 0.253 µM): 0.815
- relative viability ([9]; first compound 0.8 µM): 0.938
- relative viability ([9]; first compound 2.53 µM): 0.925
- relative viability ([10]; first compound 0.08 µM): 0.606
- relative viability ([10]; first compound 0.253 µM): 0.64
- relative viability ([10]; first compound 0.8 µM): 0.62
- relative viability ([10]; first compound 2.53 µM): 0.568
- relative viability ([11]; first compound 0.08 µM): 0.581
- relative viability ([11]; first compound 0.8 µM): 0.665
- relative viability ([11]; first compound 2.53 µM): 0.617
- relative viability ([12]; first compound 0.08 µM): 0.841
- relative viability ([12]; first compound 0.253 µM): 0.841
- relative viability ([12]; first compound 0.8 µM): 1.38
- relative viability ([12]; first compound 2.53 µM): 0.951
- relative viability ([13]; first compound 0.08 µM): 0.537
- relative viability ([13]; first compound 0.253 µM): 0.527
- relative viability ([13]; first compound 0.8 µM): 0.645
- relative viability ([13]; first compound 2.53 µM): 0.617
- relative viability ([14]; first compound 0.08 µM): 0.774
- relative viability ([14]; first compound 0.253 µM): 0.572
- relative viability ([14]; first compound 0.8 µM): 0.475
- relative viability ([14]; first compound 2.53 µM): 0.499
- relative viability ([15]; first compound 0.08 µM): 1.29
- relative viability ([15]; first compound 0.253 µM): 1.15
- relative viability ([15]; first compound 0.8 µM): 1.2
- relative viability ([15]; first compound 2.53 µM): 1.2
- relative viability ([16]; first compound 0.08 µM): 1.19
- relative viability ([16]; first compound 0.253 µM): 0.949
- relative viability ([16]; first compound 0.8 µM): 0.884
- relative viability ([16]; first compound 2.53 µM): 0.99
- relative viability ([17]; first compound 0.08 µM): 0.882
- relative viability ([17]; first compound 0.253 µM): 0.804
- relative viability ([17]; first compound 0.8 µM): 0.822
- relative viability ([17]; first compound 2.53 µM): 0.805
- relative viability ([18]; first compound 0.08 µM): 0.968
- relative viability ([18]; first compound 0.253 µM): 0.879
- relative viability ([18]; first compound 0.8 µM): 0.957
- relative viability ([18]; first compound 2.53 µM): 0.945
- relative viability ([19]; first compound 0.08 µM): 0.854
- relative viability ([19]; first compound 0.253 µM): 0.862
- relative viability ([19]; first compound 0.8 µM): 1.02
- relative viability ([19]; first compound 2.53 µM): 1.06
- relative viability ([20]; first compound 0.08 µM): 1.26
- relative viability ([20]; first compound 0.253 µM): 1.08
- relative viability ([20]; first compound 0.8 µM): 1.06
- relative viability ([20]; first compound 2.53 µM): 1.06
